{"source": "patent US9868716B2", "about": "“Method for preventing and/or treating a subject suffering from asthma” (Hong Kong Baptist University, priority 2014, dated 2018)", "key": {"lung tissue": {"test_system": "lung tissue", "assay": "Cytokines in lung tissue of asthma animal models", "type": "in vivo", "details": "asthma model mice; FIG. 7", "method": "(§1) Balb/c mice of SPF grade were selected for establishing an asthma animal model. With reference to FIG. 3a, ovalalbumin (OVA) dissolved in PBS with aluminum hydroxide gel was intraperitoneally injected to the mice to trigger systemic allergic responses, i.e. OVA sensitization. Then, atomized OVA was given to stimulate or challenge respiratory tracts of the mice. As such, a control group was prepared. By using the similar approach, treatment groups with an administration of N7 in different concentrations as well as a positive control group with an administration of dexamethasone were established. Also, a further control group of PBS was established by using same volume of PBS to replace OVA and using the PBS to replace the atomized OVA.\nSome portions of lung tissue of the animal models were collected to evaluate lung inflammatory status. A portion of the collected lung tissue was isolated to extract RNA, and another portion of the lung tissue was grinded and digested for cytokines measurements."}, "Lyn": {"test_system": "Lyn", "assay": "Immunoprecipitation of Lyn phosphorylation in IgE/DNP-HSA-stimulated murine mast cells", "type": "cell-based, mice", "details": "murine BMMC, N7 1 hour, then antigen 5 minutes; FIG. 1a", "method": "(§2) Bone marrow-derived mast cells (BMMC) of mice were separated from BALB/c murine marrow and were cultured in RPMI1640 liquid containing IL-3, 10% of calf serum, 100 U/ml of penicillin and 100 μg/ml of streptomycin for 6 weeks. Two markers c-kit and FceRI on cell membranes were detected by using flow cytometric analysis. When double-positive cells detected, having both markers, have exceeded 95%, the cultured cells can be used for the experiment.\n(§3) Mast cells were pre-treated with IgE overnight, and were washed by PBS thrice. After re-suspended with medium, they were treated with different concentrations of Nujiangexanthone A for 1 hour. Dinitrophenyl human serum albumin (DNP-HSA) was used to treat the cells for 5 minutes. A/G agarose was added into the cell lysates and the mixtures were rotated at a rotator for 1 hour. Antibodies of Syk, Fyn and Lyn were added, and the mixtures were rotated overnight. On the following day, PBS was used to wash the complex of magnetic beads, antibody and protein for 5 times. A Western Blot loading dye was added into the complex and the mixtures were boiled for 5 minutes. […]\n(§4) The results of FIG. 1a are obtained by pretreating the antibody-treated mast cells with N7 and Src family inhibitor PP2 for 1 hour and then treating the cells with antigens for 5 minutes. […] The downstream signal pathways of Syk including MAPKs, NF-kB and AP-1 were then analyzed by Western Blot."}, "Fyn [1]": {"test_system": "Fyn", "assay": "Western blot of Fyn phosphorylation in PMA/ionomycin-treated Jurkat cells", "type": "cell-based, Human", "details": "N7 1 hour, PMA and ionomycin 15 minutes, FIG. 5a", "method": "(§5) Jurkat T cells were cultured in RPMI1640 containing 10% fetal calf serum, 100 U/ml of penicillin and 100 μg/ml of streptomycin. The cells were passed once every two days with fresh medium. After pretreating the cells with a medicament, PMA and ionomycin were used to treat the cells at different time points. After the treatments, the cells were collected for biomarker measurements.\n(§6) Jurkat T cells culture: in a safe range of concentrations, cells were treated with Nujiangexanthone A in corresponding concentrations for 5, 15 and 30 minutes. The samples were collected and lysed. The samples were then separated by 8% gel in SDS-PAGE and transferred to PVDF membrane. The following antibodies were used to analyze the samples: ERK, JNK, p38, IKK, IkBa, NF-kB and so forth. If the compound is found to interfere with the expression and phosphorylation of the target proteins, a corresponding specific inhibitor may be used to conduct a comparative analysis.\n(§7) In one test, Jurkat cells were pretreated with N7 and Src family inhibitor PP2 for 1 hour and then co-treated with PMA and ionomycin for 15 minutes. Then, a plurality of proteins of T cells signaling transduction pathways were measured by Western blot."}, "murine spleen cells": {"test_system": "murine spleen cells", "assay": "ELISA of cytokines in spleen cells of asthma mice", "type": "in vivo", "details": "spleen cells treated with OVA for 3 days, ELISA (IL-4, IL-5, IL-13, IFNγ); FIG. 2a", "method": "(§8) Lymph nodes and spleen of mice were collected. The collected tissues were respectively grinded, counted and cultivated. The cultured tissues were stimulated with PMA and ionomycin for 48 hours. The supernatant and the cells were then collected for analysis. The supernatant was used for examining various cytokines, and the cells were used for measuring expressions of various T cell specific proteins by Western blot.\n(§9) To obtain the data in FIG. 2a, murine spleen cells were grinded and treated with OVA for 3 days, and then the supernatants of the cell mixtures were collected for ELISA analysis. […] As shown in FIG. 2b and FIG. 2c, the signal transduction proteins in spleen cells were detected. According to the experimental results, N7 inhibits the phosphorylation of Syk in spleen cells of mice having asthma."}, "[2]": {"test_system": "downstream signal pathways of Syk including MAPKs, NF-kB and AP-1", "assay": "Western Blot of downstream signaling pathways of Syk in murine mast cells", "type": "cell-based, mice", "details": "murine BMMC, FIG. 1b", "method": "as §2\nas §6, with “Cells” for “Jurkat T cells culture: in a safe range of concentrations, cells”, “A (N7)” for “A”, “sodium dodecyl sulfate polyacrylaminde gel electrophoresis (SDS-PAGE)” for “SDS-PAGE”, “polyvinylidene fluoride (PVDF)” for “PVDF”\nThe results of FIG. 1a are obtained by pretreating the antibody-treated mast cells with N7 and Src family inhibitor PP2 for 1 hour and then treating the cells with antigens for 5 minutes. Phosphorylation of Syk, Fyn and Lyn were then examined by immunoprecipitation. The results of FIG. 1b are obtained by pretreating the antibody-treated mast cells with N7 and Src family inhibitor PP2 for one hour and then treating with antigens for 15 minutes. The downstream signal pathways of Syk including MAPKs, NF-kB and AP-1 were then analyzed by Western Blot."}, "[3]": {"test_system": "Balb/c mice, asthma animal model", "assay": "OVA asthma animal model", "type": "in vivo", "method": "as §1\n(§10) Symptoms of the mice were recorded during the test. Peripheral blood of the mice was collected before the end of the test so as to measure the release of IgE. Airway lavages were collected and the supernatants thereof were tested to measure the release of various cytokines. Cells were counted after being fixed and stained. The effect of Nujiangexanthone A on different types of immune cells was studied."}, "Lck": {"test_system": "Lck", "assay": "Western blot of Lck phosphorylation in PMA/ionomycin-treated Jurkat cells", "type": "cell-based, Human", "details": "N7 1 hour, PMA and ionomycin 15 minutes, FIG. 5a", "method": "as §5, §6, §7"}, "T-bet": {"test_system": "T-bet", "assay": "Western Blot of T-bet in spleen cells of asthma mice", "type": "in vivo", "details": "FIG. 2b, 2c", "method": "as §8, §9"}, "Syk [4]": {"test_system": "Syk", "assay": "Western blot of Syk phosphorylation in PMA/ionomycin-treated Jurkat cells", "type": "cell-based, Human", "details": "N7 1 hour, PMA and ionomycin 15 minutes, FIG. 5a", "method": "as §5, §6, §7"}, "Syk [5]": {"target": "T1, Syk (Mus musculus, UniProt P48025)", "T1 sequence (P48025 whole entry)": "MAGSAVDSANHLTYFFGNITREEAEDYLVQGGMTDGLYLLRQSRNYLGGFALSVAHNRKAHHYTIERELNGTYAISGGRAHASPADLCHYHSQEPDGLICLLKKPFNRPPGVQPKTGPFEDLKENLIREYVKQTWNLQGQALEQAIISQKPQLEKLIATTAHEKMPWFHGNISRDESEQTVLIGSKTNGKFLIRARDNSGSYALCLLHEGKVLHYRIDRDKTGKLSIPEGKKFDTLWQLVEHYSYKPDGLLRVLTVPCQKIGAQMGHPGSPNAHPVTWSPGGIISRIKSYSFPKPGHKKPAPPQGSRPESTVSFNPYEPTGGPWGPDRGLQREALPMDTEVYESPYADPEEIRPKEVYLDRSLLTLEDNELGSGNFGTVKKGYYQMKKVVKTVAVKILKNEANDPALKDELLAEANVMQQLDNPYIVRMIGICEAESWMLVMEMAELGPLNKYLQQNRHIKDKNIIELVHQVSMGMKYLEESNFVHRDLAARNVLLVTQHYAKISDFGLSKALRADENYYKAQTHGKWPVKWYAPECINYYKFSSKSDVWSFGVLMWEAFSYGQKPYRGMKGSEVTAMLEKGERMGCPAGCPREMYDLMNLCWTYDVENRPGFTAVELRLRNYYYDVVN", "assay": "Immunohistochemistry of p-Syk in lung tissues of asthma model mice", "type": "in vivo", "details": "FIG. 3d", "method": "as §1, §10"}, "Murine BMMCs": {"test_system": "Murine BMMCs", "assay": "Activation of murine mast cells (cytokines, degranulation, Ca2+, LTC4)", "type": "cell-based, BALB/c mice", "details": "BMMC", "method": "Murine BMMCs were isolated from BALB/c murine marrow and were cultured in a RPMI1640 medium containing IL-3, 10% of calf serum, 100 U/ml of penicillin and 100 μg/ml of streptomycin for 6 weeks. Two markers c-kit and FceRI on cell membranes were detected by using flow cytometric analysis. When double-positive cells detected, having both markers, have exceeded 95%, the cultured cells can be used for the experiment.\n(§11) IgE mast cells were pretreated with IgE overnight and washed by PBS thrice. After re-suspended with medium, they were treated with different concentrations of Nujiangexanthone A for 1 hour. DNP-HAS or antigen was then used to treat the cells for 6 hours. The supernatants were collected for measurement. The amounts of TNF-α and IL-6 were measured by an ELISA kit.\nas §11, with “15 minutes.” for “6 hours.”, “LTC4” for “TNF-α”, “Ca^2+ as well as the degranulation response” for “IL-6”\nThe amount of b-Hex was measured to evaluate the degranulation response."}, "GATA3": {"test_system": "GATA3", "assay": "Western Blot of GATA3 in spleen cells of asthma mice", "type": "in vivo", "details": "FIG. 2b, 2c", "method": "as §8, §9"}, "PBMC of asthma patients": {"test_system": "PBMC of asthma patients", "assay": "qPCR of cytokines in PBMC of asthma patients", "type": "cell-based, human", "details": "mRNA by qPCR, FIG. 4", "method": "Blood samples were collected from normal (healthy) people and people with asthma Peripheral blood mononuclear cells (PBMC) were isolated. By using Ficoll-density method, the effect of Nujiangexanthone A on the release of various cytokines in the isolated PBMCs was measured by qPCR."}, "Zap70": {"test_system": "Zap70", "assay": "Western Blot of phosphorylated Zap70 in spleen cells of asthma mice", "type": "in vivo", "details": "FIG. 2b, 2c", "method": "as §8, §9"}, "Syk [6]": {"target": "T1, Syk", "assay": "Immunoprecipitation of Syk phosphorylation in IgE/DNP-HSA-stimulated murine mast cells", "type": "cell-based, mice", "details": "murine BMMC, N7 1 hour, then antigen 5 minutes; FIG. 1a", "method": "as §2, §3, §4"}, "Stat6": {"test_system": "Stat6", "assay": "Western Blot of phosphorylated Stat6 in spleen cells of asthma mice", "type": "in vivo", "details": "FIG. 2b, 2c", "method": "as §8, §9"}, "Syk [7]": {"target": "T1, Syk", "assay": "Western Blot of phosphorylated Syk in spleen cells of asthma mice", "type": "in vivo", "set-up": "from tissue; host or cells: mouse spleen cells", "details": "spleen cells of mice having asthma; FIG. 2b, 2c", "method": "as §8, §9"}, "Fyn [8]": {"test_system": "Fyn", "assay": "Immunoprecipitation of Fyn phosphorylation in IgE/DNP-HSA-stimulated murine mast cells", "type": "cell-based, mice", "details": "murine BMMC, N7 1 hour, then antigen 5 minutes; FIG. 1a", "method": "as §2, §3, §4"}, "[9]": {"details": "N7 1 hour, DNP-HAS 15 minutes, dose-dependent, FIG. 6"}, "[10]": {"details": "N7 1 hour, DNP-HAS 6 hours, ELISA, dose-dependent, FIG. 6"}}, "data": [{"compound": "COc1c(O)c(O)c2c(=O)c3c(CC=C(C)C)c(CC=C(C)C)c(O)c(O)c3oc2c1CC=C(C)C", "note": "[Nujiangexanthone A]", "values": [{"measurement": "production of IFNγ in lung tissue", "setting": "lung tissue", "result": "does not affect"}, {"measurement": "production of IL-4 in lung tissue", "setting": "lung tissue", "result": "inhibits"}, {"measurement": "production of IL-5 in lung tissue", "setting": "lung tissue", "result": "inhibits"}, {"measurement": "production of IL-13 in lung tissue", "setting": "lung tissue", "result": "inhibits"}, {"measurement": "production of LTC4 in lung tissue", "setting": "lung tissue", "result": "inhibits"}, {"measurement": "production of PGD2 in lung tissue", "setting": "lung tissue", "result": "inhibits"}, {"measurement": "production of eotaxin in lung tissue", "setting": "lung tissue", "result": "inhibits"}, {"measurement": "phosphorylation of Lyn", "setting": "Lyn", "result": "does not affect"}, {"measurement": "phosphorylation of Fyn", "setting": "Fyn [1]", "result": "does not affect"}, {"measurement": "production of cytokines in spleen tissues", "setting": "murine spleen cells", "result": "inhibits"}, {"measurement": "MAPK signaling pathways", "setting": "[2]; N7 1 hour, antigen 15 minutes", "result": "inhibits"}, {"measurement": "nuclear translocation of p65", "setting": "[2]; cytoplasm and nucleus separated", "result": "inhibits"}, {"measurement": "production of transcription factors AP-1 (c-Jun+c-fos)", "setting": "[2]", "result": "is inhibited"}, {"measurement": "production of IgE in serum", "setting": "[3]; OVA asthma mice, FIG. 3b", "result": "effectively inhibits"}, {"measurement": "level of phosphorylated tyrosine in lung tissues", "setting": "[3]; immunohistochemistry, FIG. 3d", "result": "inhibits"}, {"measurement": "infiltrates in peribronchial inflammatory cell", "setting": "[3]; lung tissues, H&E and PAS, FIG. 3c", "result": "decreases"}, {"measurement": "phosphorylation of Lck", "setting": "Lck", "result": "does not affect"}, {"measurement": "expression of T-bet", "setting": "T-bet", "result": "without altering"}, {"measurement": "phosphorylation of Syk", "setting": "Syk [4]", "result": "selectively inhibits"}, {"measurement": "level of phosphorylated Syk in lung tissues", "setting": "Syk [5]", "result": "inhibits"}, {"measurement": "concentration of calcium", "setting": "Murine BMMCs; [9]", "result": "lower"}, {"measurement": "degranulation of mast cells (b-Hex)", "setting": "Murine BMMCs; [9]", "result": "inhibit"}, {"measurement": "production of leukotriene LTC4", "setting": "Murine BMMCs; [9]", "result": "inhibit"}, {"measurement": "production of IL-6", "setting": "Murine BMMCs; [10]", "result": "inhibit"}, {"measurement": "production of TNF-α", "setting": "Murine BMMCs; [10]", "result": "inhibit"}, {"measurement": "cytotoxicity", "setting": "Murine BMMCs; range of concentration used in the activation tests", "result": "no cytotoxicity"}, {"measurement": "expression of GATA3", "setting": "GATA3", "result": "inhibits"}, {"measurement": "expression of IFN′", "setting": "PBMC of asthma patients", "result": "does not inhibit"}, {"measurement": "production of IL-5", "setting": "PBMC of asthma patients", "result": "inhibits"}, {"measurement": "production of IL-13", "setting": "PBMC of asthma patients", "result": "inhibits"}, {"measurement": "production of IL-17", "setting": "PBMC of asthma patients", "result": "inhibits"}, {"measurement": "expression of phosphorylated Zap70", "setting": "Zap70", "result": "inhibits"}, {"measurement": "phosphorylation of Syk", "setting": "Syk [6]", "result": "selectively inhibits"}, {"measurement": "expression of phosphorylated Stat6", "setting": "Stat6", "result": "inhibits"}, {"measurement": "expression of phosphorylated Syk", "setting": "Syk [7]", "result": "inhibits"}, {"measurement": "phosphorylation of Fyn", "setting": "Fyn [8]", "result": "does not affect"}]}]}
